Source: patent publication US20260285850A1, “SUBSTITUTED OXAZOLIDINONES AND IMIDAZOLINONES AS HERBICIDES” (FMC CORPORATION, priority 2023, published 2026)

Key:
Format in all cases: in vivo
[1] = system: green foxtail (Setaria viridis); test: Test A preemergence soil spray, visual injury rating 0-100; conditions: 10 days
How it was run: (§1)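 Compounds formulated in a non-phytotoxic solvent with surfactant are sprayed onto soil of freshly planted loam-sand pots ahead of emergence, or onto emerged plants 2-10 cm tall. After a 10-day greenhouse period, each species is scored visually for injury against untreated controls.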

[2] = system: ryegrass, Italian (italian ryegrass, Lolium multiflorum); test: as above; conditions: 10 days
How it was run: as §1

[3] = system: barnyardgrass (Echinochloa crus-galli); test: as above; conditions: 10 days
How it was run: as §1

kochia (Bassia scoparia) [4] = test: as above; conditions: 10 days
How it was run: as §1

[5] = system: ragweed (common ragweed, Ambrosia artemisiifolia); test: as above; conditions: 10 days
How it was run: as §1

[6] = system: oat, wild (wild oat, Avena fatua); test: as above; conditions: 10 days
How it was run: as §1

soybean (Glycine max) [7] = test: as above; conditions: 10 days
How it was run: as §1

[8] = system: blackgrass (Alopecurus myosuroides); test: as above; conditions: 10 days
How it was run: as §1

corn (Zea mays) [9] = test: as above; conditions: 16 g ai/ha, 0 to 100 scale, 10 days
How it was run: as §1

[10] = system: wheat (Triticum aestivum); test: as above; conditions: 10 days
How it was run: as §1

[11] = system: palmer (palmer amaranth, palmer pigweed, Amaranthus palmeri); test: as above; conditions: 62 g ai/ha, 10 days, 0 = no effect, 100 = complete control
How it was run: as §1

[12] = system: green foxtail (Setaria viridis); test: Test A postemergence application, visual injury rating 0-100
How it was run: as §1

[13] = system: ryegrass, Italian (italian ryegrass, Lolium multiflorum); test: as above
How it was run: as §1

[14] = system: barnyardgrass (Echinochloa crus-galli); test: as above
How it was run: as §1

kochia (Bassia scoparia) [15] = test: as above
How it was run: as §1

[16] = system: ragweed (common ragweed, Ambrosia artemisiifolia); test: as above
How it was run: as §1

[17] = system: oat, wild (wild oat, Avena fatua); test: as above
How it was run: as §1

soybean (Glycine max) [18] = test: as above
How it was run: as §1

[19] = system: blackgrass (Alopecurus myosuroides); test: as above
How it was run: as §1

corn (Zea mays) [20] = test: as above
How it was run: as §1

[21] = system: wheat (Triticum aestivum); test: as above
How it was run: as §1

[22] = system: palmer (palmer amaranth, palmer pigweed, Amaranthus palmeri); test: as above
How it was run: as §1

[23] = system: horseweed (Erigeron canadensis); test: as above
How it was run: as §1

[24] = system: galium (catchweed bedstraw, Galium aparine); test: as above
How it was run: as §1

[25] = system: ducksalad (Heteranthera limosa); test: Test B flooded paddy test, visual plant response rating 0-100; conditions: 250 g ai/ha, Flood, applied to paddy water, evaluated after 13 days
How it was run: (§2)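 Compounds applied to standing paddy water (3 cm above soil, maintained for the test duration) on 2-leaf-stage plants; visual rating vs controls at 13 days, greenhouse.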

rice (Oryza sativa) = test: as above; conditions: 250 g ai/ha, Flood, applied to paddy water, evaluated after 13 days
How it was run: as §2

[26] = system: sedge, umbrella (small-flower umbrella sedge, Cyperus difformis); test: as above; conditions: 250 g ai/ha, Flood, applied to paddy water, evaluated after 13 days
How it was run: as §2

[27] = system: barnyardgrass (Echinochloa crusgalli); test: as above; conditions: 250 g ai/ha, Flood, applied to paddy water, evaluated after 13 days
How it was run: as §2

[28] = 62 g ai/ha, 0 = no effect, 100 = complete control
[29] = 62 g ai/ha, postemergence, 10 days, 0 = no effect, 100 = complete control
[30] = Postemergence, 16 g ai/ha, greenhouse 10 days, 0 no effect, 100 complete control

With `CCOC(=O)C1=CCC(NC(=O)C2(C)CN(c3cc(F)cc(Cl)c3)C(=O)O2)C1` (centres unmarked) [Compound 133] the “Foxtail, Green plant response rating” value ([1]; 16 g ai/ha, 0 to 100 scale) was 0, the “Foxtail, Green plant response rating (0-100)” value [1, 28] was 90 and the “Ryegrass, Italian plant response rating” value ([2]; 16 g ai/ha, 0 to 100 scale) was 10. For the same compound, the “Ryegrass, Italian plant response rating (0-100)” value [2, 28] was 80, the “Barnyardgrass plant response rating” value ([3]; 16 g ai/ha, 0 to 100 scale) was 0 and the “Barnyardgrass plant response rating (0-100)” value [3, 28] was 80. The “Kochia plant response rating” value (kochia (Bassia scoparia) [4]; 16 g ai/ha, 0 to 100 scale) was 0, the “Kochia plant response rating (0-100)” value (kochia (Bassia scoparia) [4]; [28]) was 20 and the “Ragweed plant response rating” value ([5]; 16 g ai/ha, 0 to 100 scale) was 0. For the same compound, the “Ragweed plant response rating (0-100)” value [5, 28] was 0, the “Oat, Wild plant response rating” value ([6]; 16 g ai/ha, 0 to 100 scale) was 0 and the “Oat, Wild plant response rating (0-100)” value [6, 28] was 0. The “Soybean plant response rating” value (soybean (Glycine max) [7]; 16 g ai/ha, 0 to 100 scale) was 0, the “Soybean plant response rating (0-100)” value (soybean (Glycine max) [7]; [28]) was 0 and the “Blackgrass plant response rating” value ([8]; 16 g ai/ha, 0 to 100 scale) was 0. For the same compound, the “Blackgrass plant response rating (0-100)” value [8, 28] was 20, the “Corn plant response rating” value (corn (Zea mays) [9]) was 0 and the “Wheat plant response rating” value ([10]; 16 g ai/ha, 0 to 100 scale) was 0. For the same compound, the “Wheat plant response rating (0-100)” value [10, 28] was 90, the “Pigweed, Palmer plant response rating (0-100)” value [11] was 90 and the “Foxtail, Green plant response rating (0-100)” value [12, 29] was 90. For the same compound, the “Foxtail, Green plant response rating (0 to 100 scale)” value [12, 30] was 90, the “Ryegrass, Italian plant response rating (0-100)” value [13, 29] was 90 and the “Ryegrass, Italian plant response rating (0 to 100 scale)” value [13, 30] was 60. The “Barnyardgrass plant response rating (0-100)” value [14, 29] was 100, the “Barnyardgrass plant response rating (0 to 100 scale)” value [14, 30] was 100 and the “Kochia plant response rating (0-100)” value (kochia (Bassia scoparia) [15]; [29]) was 90. The “Kochia plant response rating (0 to 100 scale)” value (kochia (Bassia scoparia) [15]; [30]) was 80, the “Ragweed plant response rating (0-100)” value [16, 29] was 70 and the “Ragweed plant response rating (0 to 100 scale)” value [16, 30] was 30. The “Oat, Wild plant response rating (0-100)” value [17, 29] was 70, the “Oat, Wild plant response rating (0 to 100 scale)” value [17, 30] was 40 and the “Soybean plant response rating (0-100)” value (soybean (Glycine max) [18]; [29]) was 70. The “Soybean plant response rating (0 to 100 scale)” value (soybean (Glycine max) [18]; [30]) was 60, the “Blackgrass plant response rating (0-100)” value [19, 29] was 90 and the “Blackgrass plant response rating (0 to 100 scale)” value [19, 30] was 70. The “Corn plant response rating (0-100)” value (corn (Zea mays) [20]; [29]) was 100, the “Corn plant response rating (0 to 100 scale)” value (corn (Zea mays) [20]; [30]) was 100 and the “Wheat plant response rating (0-100)” value [21, 29] was 90. The “Wheat plant response rating (0 to 100 scale)” value [21, 30] was 80, the “Pigweed, Palmer plant response rating (0-100)” value [22, 29] was 90 and the “Pigweed, Palmer plant response rating (0 to 100 scale)” value [22, 30] was 90. For the same compound, the “Horseweed plant response rating (0-100)” value [23, 29] was 80, the “Horseweed plant response rating (0 to 100 scale)” value [23, 30] was 0 and the “Galium plant response rating (0-100)” value [24, 29] was 70. The “Galium plant response rating (0 to 100 scale)” value [24, 30] was 60, the “Plant response rating, Ducksalad (0 to 100 scale, 0 is no effect and 100 is complete control)” value [25] was 85 and the “Plant response rating, Rice (0 to 100 scale, 0 is no effect and 100 is complete control)” value (rice (Oryza sativa)) was 85. The “Plant response rating, Sedge, Umbrella (0 to 100 scale, 0 is no effect and 100 is complete control)” value [26] was 98 and the “Plant response rating, Barnyardgrass (0 to 100 scale, 0 is no effect and 100 is complete control)” value [27] was 95.
